Converted amounts (≈) assume the structure as drawn. Counter-ions that a name gives are not always drawn. Like-named read-outs stand apart in the source and are kept apart here.

Holding throughout (format): cell-based
The test system of test [1] is Fusarium falciforme FS1 (ATCC MYA-3636). Description: Fungal MIC Protocol, Fusarium falciforme. To be noted: for MIC: Fusarium falciforme, read-out: MIC Fusarium falciforme 3636. Summed up:
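MIC against Fusarium falciforme was determined by broth microdilution in RPMI/MOPS medium containing glucose. Compounds started at 200 ug/mL and were serially diluted ten times, then combined with harvested spores adjusted to an OD530 of 0.005. Controls held compound without cells and spores without compound. Plates were bagged and incubated at 35° C. for 48 hours.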

Test [2] concerns Mucor ramosissimus 057718 (ATCC 90286). The test is described as follows: Fungal MIC Protocol, Mucor ramosissimus (MIC-50). As to conditions: for MIC50: Mucor ramosissimus, read-out: MIC-50 Mucorales ramosissimus 90286. Summed up: (§1)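 Harvested spores, adjusted by OD530 to about 2×10^4 cfu/mL in RPMI/MOPS pH 7.0, are mixed with ten duplicate serial dilutions of compound. Incubation runs 48 h at 35° C before visual scoring of the lowest concentration inhibiting growth >50%.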

The test system of test [3] is Aspergillus flavus AFL1 (ATCC MYA-3631). Description: Fungal MIC Protocol, Aspergillus flavus. As to conditions: for MIC: Aspergillus flavus, read-out: MIC Aspergillus flavus 3631. Summed up: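 The MIC against Aspergillus flavus was measured by broth microdilution in RPMI/MOPS medium at pH 7.0. Compounds were diluted to 200 ug/mL from DMSO stocks, then ten serial dilutions were tested in duplicate in round bottom 96-well plates. Spores adjusted to a final OD530 of 0.002 were added, with no-cell and no-compound control wells, and plates were incubated 48 hours at 35° C.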

For test [4], the system named is Aspergillus fumigatus T33439 (ATCC MYA-3626). Description: Fungal MIC Protocol, Aspergillus fumigatus. To be noted: for MIC: Aspergillus fumigatus, read-out: MIC Aspergillus fumigatus 3626. Summed up:
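This broth microdilution MIC test used RPMI/MOPS medium at pH 7.0 with glucose. Compounds were diluted from DMSO stock to 200 ug/mL and serially diluted ten times in 96-well round bottom plates. Equal volumes of compound and Aspergillus spore suspension at OD530 0.002 were combined, with controls of compound without cells and spores without compound. Plates were bagged and incubated at 35° C. for 48 hours.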

The test system of test [5] is Candida albicans GDH2346. Description: Candida Minimal Inhibitory Concentration (MIC). To be noted: for MIC50: Candida albicans, read-out: MIC-50 Candida albicans GDH2346. Summed up: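 Twofold serial dilutions from 200 μg/mL in RPMI 1640/MOPS with glucose, pH 7.0, tested in duplicate against yeast from an OD600 1.0 suspension diluted 1:1000. Incubated at 35° C; OD600 read at 24 and 48 h.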

The subject of test [6] is Fusarium solani (ATCC 58877). Description: Fungal MIC Protocol, Fusarium solani. As to conditions: for MIC: Fusarium solani, read-out: MIC Fusarium solani 58877. The gist of the method: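 Broth microdilution MIC test against Fusarium solani in RPMI/MOPS medium at pH 7.0. Compounds from DMSO stock were diluted to 200 ug/mL, then serially diluted ten times and plated in duplicate at 50 μl per well. 50 ul of spore suspension at OD530 0.005 was added. Controls had compound without cells and spores without compound. Plates were mixed gently, bagged, and incubated at 35° C. for 48 hours.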

Test [7] concerns Mucor circinelloides 1463(62) (ATCC 26759). Description: Fungal MIC Protocol, Mucor circinelloides (MIC-50). As to conditions: for MIC50: Mucor circinelloides, read-out: MIC-50 Mucorales circinelloides 26579. Summed up:
as §1

[8] abbreviates: 100% growth inhibition at 48 hours.
Setting [9] is: 50% growth inhibition at 48 hours.
Setting [10] is: ATCC90286, 50% growth inhibition at 48 hours.
[11] abbreviates: GDH2346, 50% growth inhibition at 48 hours.
The mark [12] stands for this setting: ATCC58877, 100% growth inhibition at 48 hours.
Setting [13] is: ATCC26759, 50% growth inhibition at 48 hours.

With “4,4-(4,4-(4-Cyclohexyl-4H-1,2,4-triazole-3,5-diyl)bis(4,1-phenylene))bis (5,6-dihydropyridine-1(2H)-carboximidamide) [Example 56]”, the “MIC Fusarium falciforme 3636” value in test [1] (setting [8]) was below 0.1 µg·mL. Also, the “MIC-50 Mucorales ramosissimus 90286” value in test [2] (setting [9]) amounted to 1.56 µg/mL. Moreover, the “MIC Aspergillus flavus 3631” value in test [3] (setting [8]) came out at 0.39 µg·mL. The “MIC Aspergillus fumigatus 3626” value in test [4] (setting [8]) was 0.39 µg·mL. In addition, the “MIC-50 Candida albicans GDH2346” value in test [5] (setting [9]) stood at 0.78 µg/mL. Moreover, the “MIC Fusarium solani 58877” value in test [6] (setting [8]) was below 0.1 µg·mL. In test [7] (setting [9]), the “MIC-50 Mucorales circinelloides 26579” value is 0.39 µg/mL.

For `CCOCCOCCn1c(-c2ccc(C3=CCN(C(=N)N)CC3)cc2F)nnc1-c1ccc(C2=CCN(C(=N)N)CC2)cc1F` [Example 9, 4,4′-(4,4′-(4-(2-(2-Ethoxyethoxy)ethyl)-4H-1,2,4-triazole-3,5-diyl)bis(3-fluoro-4,1-phenylene))bis(5,6-dihydropyridine-1(2H)-carboximidamide)], the MIC in test [1] (setting [8]) is 0.2 µg/mL (≈ 0.323 µM); in test [3] (setting [8]) it was 0.39 µg/mL (≈ 0.629 µM); in test [4] (setting [8]), 0.2 µg/mL (≈ 0.323 µM); in test [6] (setting [12]), 0.2 µg/mL (≈ 0.323 µM). Further, the MIC50 in test [2] (setting [10]) was 3.13 µg/mL (≈ 5.05 µM); in test [5] (setting [11]) it was below 0.1 µg/mL; in test [7] (setting [13]) it was 3.13 µg/mL (≈ 5.05 µM).

For the compound `Cn1c(-c2ccc(C3=CCN(C(=N)N)C3)cc2)nnc1-c1ccc(C2=CCN(C(=N)N)C2)c(C(F)(F)F)c1` [Example 27, 3-(4-(5-(4-(1-Carbamimidoyl-2,5-dihydro-1H-pyrrol-3-yl)-3-(trifluoromethyl)phenyl)-4-methyl4H-1,2,4-triazol-3-yl)phenyl)-2,5-dihydro-1H-pyrrole-1-carboximidamide], the MIC in test [1] (setting [8]) is below 0.1 µg/mL; in test [3] (setting [8]), 0.39 µg/mL (≈ 0.748 µM); in test [4] (setting [8]), below 0.1 µg/mL; in test [6] (setting [12]), 0.2 µg/mL (≈ 0.383 µM). The MIC50 in test [2] (setting [10]) amounted to 6.25 µg/mL (≈ 12 µM); in test [5] (setting [11]), 0.39 µg/mL (≈ 0.748 µM); in test [7] (setting [13]), 0.78 µg/mL (≈ 1.5 µM).

In the case of `Cc1cc(C2=CCN(C(=N)N)CC2)ccc1-n1nnc(-c2ccc(C3=CCN(C(=N)N)CC3)cc2)c1C` [Example 32, 4-(4-(1-(4-(1-Carbamimidoyl-1,2,3,6-tetrahydropyridin-4-yl)-2-methylphenyl)-5-methyl-1H-1,2,3-triazol-4-yl)phenyl)-5,6-dihydropyridine-1(2H)-carboximidamide], the MIC in test [1] (setting [8]) was below 0.1 µg/mL; in test [3] (setting [8]), 0.39 µg/mL (≈ 0.787 µM); in test [4] (setting [8]) it was 0.78 µg/mL (≈ 1.57 µM); in test [6] (setting [12]) it was 0.78 µg/mL (≈ 1.57 µM). For the same compound, the figures for the MIC50 in test [2] (setting [10]), in test [5] (setting [11]) and in test [7] (setting [13]) were 6.25 µg/mL (≈ 12.6 µM), 0.08 µg/mL (≈ 0.161 µM) and 0.78 µg/mL (≈ 1.57 µM), respectively.

Take `N=C(N)N1CC=C(c2ccc(-c3nnc(-c4ccc(C5=CCN(C(=N)N)CC5)cc4F)n3Cc3ccccc3)cc2)CC1` [Example 7, 4-(4-(4-Benzyl-5-(4-(1-carbamimidoyl-1,2,3,6-tetrahydropyridin-4-yl)-2-fluorophenyl)-4H-1,2,4-triazol-3-yl)phenyl)-5,6-dihydropyridine-1(2H)-carboximidamide]: the MIC in test [1] (setting [8]) was below 0.1 µg/mL; in test [3] (setting [8]), 0.78 µg/mL (≈ 1.35 µM); in test [4] (setting [8]) it was below 0.1 µg/mL; in test [6] (setting [12]) it was 0.39 µg/mL (≈ 0.677 µM). Also, the MIC50 in test [2] (setting [10]) worked out at 1.56 µg/mL (≈ 2.71 µM); in test [5] (setting [11]), 3.13 µg/mL (≈ 5.44 µM); in test [7] (setting [13]) it was 0.78 µg/mL (≈ 1.35 µM).

With `COCCn1c(-c2ccc(C3=CCN(C(=N)N)CC3)cc2F)nnc1-c1ccc(C2=CCN(C(=N)N)CC2)cc1F` [Example 68, 4-(4-{5-[4-(1-carbamimidoyl-1,2,3,6-tetrahydropyridin-4-yl)-2-fluorophenyl]-4-(2-methoxyethyl)-4H-1,2,4-triazol-3-yl}-3-fluorophenyl)-1,2,3,6-tetrahydropyridine-1-carboximidamide trifluoroacetate], the MIC in test [1] (48 h) is below 0.1 µg/mL; in test [3] (48 h), below 0.1 µg/mL; in test [4] (48 h), 0.1 µg/mL; in test [6] (ATCC58877, 48 h) it was below 0.1 µg/mL. Further, the MIC50 came to 0.78 µg/mL in test [2] (ATCC90286, 48 h); 0.2 µg/mL in test [5] (GDH2346, 48 h); 0.39 µg/mL in test [7] (ATCC26759, 48 h).

For `Cc1cc(-c2nnc(-c3ccc(C4=CCN(C(=N)N)CC4)c(C)c3)n2C)ccc1C1=CCN(C(=N)N)CC1` [Example 24, 4,4′-(4,4′-(4-Methyl-4H-1,2,4-triazole-3,5-diyl)bis(2-methyl-4,1-phenylene)) bis(5,6-dihydropyridine-1(2H)-carboximidamide)], the MIC in test [1] (setting [8]) was 0.78 µg/mL (≈ 1.53 µM); in test [3] (setting [8]) it was 1.56 µg/mL (≈ 3.06 µM); in test [4] (setting [8]), 0.78 µg/mL (≈ 1.53 µM); in test [6] (setting [12]), 0.78 µg/mL (≈ 1.53 µM). The MIC50 in test [2] (setting [10]) is 50 µg/mL (≈ 98.1 µM); in test [5] (setting [11]), 1.56 µg/mL (≈ 3.06 µM); in test [7] (setting [13]) it was 6.25 µg/mL (≈ 12.3 µM).

Take `Cn1c(-c2ccc(C3=CCN(C(=N)N)CC3)cc2)nnc1-c1ccc(C2=CCN(C(=N)N)CC2)cc1` [Example 1, 4,4-(4,4-(4-Methyl-4H-1,2,4-triazole-3,5-diyl)bis(4,1-phenylene))bis(5,6-dihydropyridine-1(2H)-carboximidamide)]: the MIC in test [1] (setting [8]) was below 0.05 µg/mL; in test [3] (setting [8]) it was 0.1 µg/mL (≈ 0.208 µM); in test [4] (setting [8]) it was below 0.05 µg/mL; in test [6] (setting [12]) it was 0.78 µg/mL (≈ 1.62 µM). Further, the MIC50 in test [2] (setting [10]) is 0.78 µg/mL (≈ 1.62 µM); in test [5] (setting [11]) it was below 0.2 µg/mL; in test [7] (setting [13]), 0.2 µg/mL (≈ 0.415 µM).

As to `CC(C)n1c(-c2ccc(C3=CCN(C(=N)N)CC3)cc2F)nnc1-c1ccc(C2=CCN(C(=N)N)CC2)cc1F` [Example 13, 4,4-(4,4-(4-Isopropyl-4H-1,2,4-triazole-3,5-diyl)bis(3-fluoro-4,1-phenylene))bis(5,6-dihydropyridine-1(2H)-carboximidamide)], the MIC in test [1] (setting [8]) is 0.78 µg/mL (≈ 1.43 µM); in test [3] (setting [8]) it was 0.2 µg/mL (≈ 0.367 µM); in test [4] (setting [8]), below 0.1 µg/mL; in test [6] (setting [12]), 6.25 µg/mL (≈ 11.5 µM). For the same compound, the MIC50 in test [2] (setting [10]) stood at 1.56 µg/mL (≈ 2.86 µM); in test [5] (setting [11]) it was 0.2 µg/mL (≈ 0.367 µM); in test [7] (setting [13]), 0.39 µg/mL (≈ 0.715 µM).

On to `Cc1cc(C2=CCN(C(=N)N)CC2)ccc1-c1cn(-c2ccc(C3=CCN(C(=N)N)CC3)cc2)nn1` [Example 36, 4-(4-(4-(4-(1-Carbamimidoyl-1,2,3,6-tetrahydropyridin-4-yl)-2-methylphenyl)-1H-1,2,3-triazol-1-yl)phenyl)-5,6-dihydropyridine-1(2H)-carboximidamide], for which the MIC amounted to 0.1 µg/mL (≈ 0.208 µM) in test [1] (setting [8]), 0.2 µg/mL (≈ 0.415 µM) in test [3] (setting [8]), 0.2 µg/mL (≈ 0.415 µM) in test [4] (setting [8]) and 0.2 µg/mL (≈ 0.415 µM) in test [6] (setting [12]). For the same compound, the MIC50 was 3.13 µg/mL (≈ 6.5 µM) in test [2] (setting [10]), 0.39 µg/mL (≈ 0.81 µM) in test [5] (setting [11]) and 0.78 µg/mL (≈ 1.62 µM) in test [7] (setting [13]).

For `Cn1c(-c2ccc(C3=CCN(C(=N)N)CC3)cc2F)nnc1-c1ccc(C2=CCN(C(=N)N)CC2)cc1F` [Example 8, 4,4′-(4,4′-(4-Methyl-4H-1,2,4-triazole-3,5-diyl)bis(3-fluoro-4,1-phenylene)) bis(5,6-dihydropyridine-1(2H)-carboximidamide)], the MIC in test [1] (setting [8]) stood at 0.006 µg/mL (≈ 0.0116 µM); in test [3] (setting [8]), 0.05 µg/mL (≈ 0.0966 µM); in test [4] (setting [8]) it was 0.05 µg/mL (≈ 0.0966 µM); in test [6] (setting [12]) it was 0.05 µg/mL (≈ 0.0966 µM). For the same compound, the figures for the MIC50 in test [2] (setting [10]), in test [5] (setting [11]) and in test [7] (setting [13]) were 0.39 µg/mL (≈ 0.753 µM), 0.1 µg/mL (≈ 0.193 µM) and 0.2 µg/mL (≈ 0.386 µM), respectively.

What is called MIC is the smallest concentration in the dilution series that meets the test's criterion for growth inhibition.

The values are drawn from US20240018121A1, “NOVEL HETEROAROMATIC COMPOUNDS EXHIBITING ANTIFUNGAL ACTIVITY AND THEIR METHOD OF USE” (FOX CHASE CHEMCIAL DIVERSITY CENTER, INC., priority 2020, published 2024).
